Measurements: US10695334B2, “Heteroaromatic carboxamide derivatives as plasma kallikrein inhibitors” (Boehringer Ingelheim International GmbH, priority 2018, dated 2020)

What was measured:
Assay type in all cases: biochemical
Human PKK [1] = biological target: T1, Human PKK (Homo sapiens (Human), UniProt P03952); assay: Inhibition of PKK (Ki), kinetic assay; conditions: 24° C., IC50 corrected for KM
Description: Measurements were performed in a kinetic interval every 2nd minute for 16 min using a Spectramax M5 (Molecular Devices) with the following settings of the wavelength excitation of 350 nm and wavelength emission of 450 nm. The number of the compound corresponds to the number of the Example in the experimental section.
The pIC50 values were then fitted using a four-parametric fitting procedure using GraphPad Prism (version 6; GraphPad Software, Inc.).
(§1) Where the IC50 is in molar and the KM value in mM.

[2] = biological target: PKK in kaolin activated human platelet poor plasma (Homo sapiens (Human), UniProt P03952); assay: Inhibition of PKK in kaolin activated human PPP; conditions: global fit over 25, 75, 250, 750 μg/mL kaolin
Description: Platelet poor plasma (PPP) obtained from human wholeblood, anticoagulated with Na-Citrat, was incubated with various concentrations of the test compound together with either 25, 75, 250, or 750 μg/mL kaolin in assay buffer for 20 min at 37° C. such that for each kaolin dose used a concentration response was obtained for the test compound.

Human PKK [3] = biological target: T1, Human PKK; assay: Inhibition of PKK, endpoint assay (human PKK); conditions: substrate H-Pro-Phe-Arg-AMC, 1 h room temperature
Description: Subsequently, PPACK II (Calbiochem) was added as a stop solution to achieve a final concentration of 1 μM and fluorescence was measured using an Envision Reader (PerkinElmer) with the wavelength excitation setting of 355 nm and the wavelength emission setting of 460 nm.

human TK1 = human TK1 (Homo sapiens (Human), UniProt P06870); assay: Inhibition of TK1 (Ki); conditions: column head prints IC50, text above the table says Ki values
Description: The ability of compounds of formula (I) to inhibit plasma kallikrein (PKK), Factor Xlla (FXIIa), Factor Xla (FXIa), Factor Xa (FXa), Factor Ila (alpha-thrombin; FIIa), plasmin, trypsin, tissue kallikrein 1 (TK1), Factor VIIa (FVIIa), or FVIIa complexed with Tissue Factor, phospholipids and CaCl2 (FVIIa/TF/PL/CaCl2) was determined using the following biochemical assays in assay buffer (100 mM Tris, 150 mM NaCL, adjusted to a pH of 7.8 with HCl, and containing 0.1% (w/v) BSA and 0.05% (v/v) Tween20) in the presence of 1% (v/v) DMSO: EVALUATION OF THE INHIBITION OF PKK USING AN ENDPOINT ASSAY Human PKK (0.01 U/mL; Enzyme Research Laboratories) or rat PKK (0.625 nM; produced in-house) was incubated for 1 h at room temperature with 0.10 μM fluorogenic substrate H-Pro-Phe-Arg-AMC (11295 from Bachem) and various concentrations of the test compound in assay buffer. Subsequently, PPACK II (Calbiochem) was added as a stop solution to achieve a final concentration of 1 μM and fluorescence was measured using an Envision Reader (PerkinElmer) with the wavelength excitation setting of 355 nm and the wavelength emission setting of 460 nm.
Prior to the assay, human TK1 (R&D Systems) was activated by incubation with human trypsin (Calbiochem) in a 1:10,000 ratio for 15 min at 37° C. For assaying TK1 inhibitory activity, activated TK1 (31.25 nM or 1 U/mL) was incubated at 24° C. with 0.1 mM fluorogenic substrate H-Pro-Phe-Arg-AMC (11295 from Bachem) and various concentrations of the test compound in assay buffer. Measurements were performed in a kinetic interval every 2nd minute for 16 min using a Spectramax M5 (Molecular Devices) with the following settings of the wavelength excitation of 350 nm and wavelength emission of 450 nm.
The average Vmax values for the time interval from 2 to 12 min after initiation of the assay (expressed as either delta OD/min for assays using a chromogenic substrate or delta RFU/min for assays using a fluorigenic substrate, respectively) were plotted versus the Log of the concentration in molar of the evaluated inhibitor compound. The pIC50 values were then fitted using a four-parametric fitting procedure using GraphPad Prism (version 6; GraphPad Software, Inc.). Respective Ki values were obtained by correction of the IC50 values for the respective KM value of the used substrate (see Table A for the obtained KM values of the used substrates) using the following formula: […]
as §1

human TK1, sequence (P06870 25-262): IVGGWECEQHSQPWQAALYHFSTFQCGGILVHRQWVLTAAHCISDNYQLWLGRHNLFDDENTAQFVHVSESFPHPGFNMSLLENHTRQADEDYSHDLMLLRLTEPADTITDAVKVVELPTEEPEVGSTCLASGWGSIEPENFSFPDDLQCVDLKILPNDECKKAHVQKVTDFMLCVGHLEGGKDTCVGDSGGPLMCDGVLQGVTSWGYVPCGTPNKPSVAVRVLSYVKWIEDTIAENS
PKK in kaolin activated human platelet poor plasma, sequence (P03952 391-638): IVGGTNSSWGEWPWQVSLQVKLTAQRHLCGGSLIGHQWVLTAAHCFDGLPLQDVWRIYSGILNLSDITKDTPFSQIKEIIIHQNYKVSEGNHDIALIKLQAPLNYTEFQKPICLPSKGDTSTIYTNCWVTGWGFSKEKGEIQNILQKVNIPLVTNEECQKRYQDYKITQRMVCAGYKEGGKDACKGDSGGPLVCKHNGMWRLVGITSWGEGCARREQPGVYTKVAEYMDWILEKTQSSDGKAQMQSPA
PKK in kaolin activated human platelet poor plasma, sequence (P03952 20-390 partner): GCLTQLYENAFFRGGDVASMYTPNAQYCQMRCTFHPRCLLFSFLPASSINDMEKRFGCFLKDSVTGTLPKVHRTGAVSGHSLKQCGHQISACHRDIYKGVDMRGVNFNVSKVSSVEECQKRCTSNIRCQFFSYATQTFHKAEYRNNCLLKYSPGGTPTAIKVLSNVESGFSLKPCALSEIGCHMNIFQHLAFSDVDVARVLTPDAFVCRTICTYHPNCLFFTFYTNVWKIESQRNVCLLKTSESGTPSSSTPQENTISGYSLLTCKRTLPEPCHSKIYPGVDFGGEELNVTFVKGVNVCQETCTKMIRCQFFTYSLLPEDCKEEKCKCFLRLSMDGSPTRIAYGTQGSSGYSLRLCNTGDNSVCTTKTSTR
T1 sequence (P03952 391-638): as the sequence (P03952 391-638) above
T1 sequence (P03952 20-390 partner): as the sequence (P03952 20-390 partner) above

SMILES	Ki (Human PKK [1])	IC90 [2]	IC50 (Human PKK [3])	IC50 (human TK1)
Cc1nc(N2C[C@@H]3[C@H](CO)[C@@H]3C2)ccc1Cn1cnc(C(=O)N[C@@H]2CCc3c2n[nH]c3C)c1 (stereo in doubt) [Example 99, 1-({6-[(1R,5S,6S)-6-(Hydroxymethyl)-3-aza-bicyclo[3.1.0]hexan-3-yl]-2-methylpyridin-3-yl}-methyl)-N-[(6R)-3-methyl-2H,4H,5H,6H-cyclo-penta[c]pyrazol-6-yl]-1H-imidazole-4-carboxamide]	1 nM	388 nM	1 nM	> 10000 nM
Cc1nc(N2CC3CC3C2)ccc1Cn1cc(C(=O)NC2CCc3c(C)n[nH]c32)cn1 (stereo not drawn) [Example 1, 1-[(6-{3-Azabicyclo[3.1.0]hexan-3-yl}-2-methylpyridin-3-yl)methyl]-N-{3-methyl-1H,4H,5H,6H-cyclopenta[c]pyrazol-6-yl}-1H-pyrazole-4-carboxamide]	1 nM	705 nM	2 nM	> 10000 nM
Cc1nc(N2CC3CC3C2)ccc1Cn1cc(C(=O)N[C@@H]2CCc3c(C)n[nH]c32)cn1 (stereo partly drawn) [Example 3, 1-[(6-{3-Azabicyclo[3.1.0]hexan-3-yl}-2-methylpyridin-3-yl)methyl]-N-[(6R)-3-methyl-1H,4H,5H,6H-cyclopenta[c]pyrazol-6-yl]-1H-pyrazole-4-carboxamide]	0.5 nM	679 nM	0.8 nM	> 10000 nM
Cc1nc(N2CC3C(C2)C3(F)F)ccc1Cn1cc(C(=O)N[C@@H]2CCc3c(C)n[nH]c32)cn1 (stereo partly drawn) [Example 5, 1-[(6-{6,6-Difluoro-3-azabicyclo[3.1.0]hexan-3-yl}-2-methylpyridin-3-yl)methyl]-N-[(6R)-3-methyl-1H,4H,5H,6H-cyclopenta[c]pyrazol-6-yl]-1H-pyrazole-4-carboxamide]	0.3 nM	241 nM	0.6 nM	> 10000 nM
Cc1nc(N2CC3CC3C2)ccc1Cc1csc(C(=O)N[C@@H]2CCc3c(C)n[nH]c32)c1 (stereo partly drawn) [Example 6, 4-[(6-{3-Azabicyclo[3.1.0]hexan-3-yl}-2-methylpyridin-3-yl)methyl]-N-[(6R)-3-methyl-1H,4H,5H,6H-cyclopenta[c]pyrazol-6-yl]thiophene-2-carboxamide]	0.5 nM	291 nM	0.7 nM	> 10000 nM
Cc1nc(N2CC3CC3C2)ccc1Cc1c[nH]c(C(=O)N[C@@H]2CCc3c(C)n[nH]c32)c1 (stereo partly drawn) [Example 7, 4-[(6-{3-Azabicyclo[3.1.0]hexan-3-yl}-2-methylpyridin-3-yl)methyl]-N-[(6R)-3-methyl-1H,4H,5H,6H-cyclopenta[c]pyrazol-6-yl]-1H-pyrrole-2-carboxamide]	0.7 nM	342 nM	1 nM	> 10000 nM
Cc1nc(N2CC3CC3C2)ccc1Cc1cc(C(=O)N[C@@H]2CCc3c(C)n[nH]c32)sc1C#N (stereo partly drawn) [Example 8, 4-[(6-{3-Azabicyclo[3.1.0]hexan-3-yl}-2-methylpyridin-3-yl)methyl]-5-cyano-N-[(6R)-3-methyl-1H,4H,5H,6H-cyclopenta[c]pyrazol-6-yl]thiophene-2-carboxamide]	3 nM	1820 nM	4 nM	> 10000 nM
Cc1nc(N2CC3CC3C2)ncc1Cn1cc(C(=O)N[C@@H]2CCc3c(C)n[nH]c32)c2cncnc21 (stereo partly drawn) [Example 23, 7-[(2-{3-Azabicyclo[3.1.0]hexan-3-yl}-4-methyl-pyrimidin-5-yl)methyl]-N-[(6R)-3-methyl-1H,4H,5H,6H-cyclopenta[c]pyrazol-6-yl]-7H-pyrrolo[2,3-d]pyrimidine-5-carboxamide]	0.3 nM		2 nM	> 10000 nM

Continued, values first:

Ki (Human PKK [1])	IC90 [2]	IC50 (Human PKK [3])	IC50 (human TK1)	SMILES
5 nM	3480 nM	7 nM	> 10000 nM	Cc1nc(N2CC3CC3C2)ccc1Cn1nnc(C(=O)N[C@@H]2CCc3c(C)n[nH]c32)n1 (stereo partly drawn) [Example 9, 2-[(6-{3-Azabicyclo[3.1.0]hexan-3-yl}-2-methylpyridin-3-yl)methyl]-N-[(6R)-3-methyl-1H,4H,5H,6H-cyclopenta[c]pyrazol-6-yl]-2H-1,2,3,4-tetrazole-5-carboxamide]
	598 nM	1 nM		Cc1nc(N2CC3(CC3)C2)ccc1Cn1cc(C(=O)N[C@@H]2CCc3c(C)n[nH]c32)cn1 [Example 11]
2 nM	3090 nM	1 nM	> 10000 nM	Cc1nc(N2CC3CC3C2)ccc1Cn1cc(C(=O)N[C@@H]2CCc3c(C)n[nH]c32)c(Cl)n1 (stereo partly drawn) [Example 12, 1-[(6-{3-Azabicyclo[3.1.0]hexan-3-yl}-2-methylpyridin-3-yl)methyl]-3-chloro-N-[(6R)-3-methyl-1H,4H,5H,6H-cyclopenta[c]pyrazol-6-yl]-1H-pyrazole-4-carboxamide]
0.1 nM		2 nM	> 10000 nM	COCc1nn(Cc2ccc(N3CC4(CC4)C3)nc2C)cc1C(=O)N[C@@H]1CCc2c(C)n[nH]c21 [Example 22, 1-[(6-{5-Azaspiro[2.3]hexan-5-yl}-2-methylpyridin-3-yl)methyl]-3-(methoxymethyl)-N-[(6R)-3-methyl-1H,4H,5H,6H-cyclopenta[c]pyrazol-6-yl]-1H-pyrazole-4-carboxamide]
0.9 nM	2010 nM	2 nM	> 10000 nM	Cc1nc(N2CCC(C)(C)C2)ccc1Cn1cc(C(=O)N[C@@H]2CCc3c2n[nH]c3C)cn1 [Example 35, 1{[6-(3,3-Dimethylpyrrolidin-1-yl)-2-methylpyridin-3-yl]methyl}-N-[(6R)-3-methyl-2H,4H,5H,6H-cyclopenta[c]pyrazol-6-yl]-1H-pyrazole-4-carboxamide]
1 nM	4670 nM	4 nM	> 10000 nM	Cc1nc(N2CCC3(CCC3)C2)ccc1Cn1cc(C(=O)N[C@@H]2CCc3c2n[nH]c3C)cn1 [Example 36, 1-[(6-{6-Azaspiro[3.4]octan-6-yl}-2-methylpyridin-3-yl)methyl]-N-[(6R)-3-methyl-2H,4H,5H,6H-cyclopenta[c]pyrazol-6-yl]-1H-pyrazole-4-carboxamide]
2 nM	4980 nM	7 nM	> 10000 nM	Cc1nc(N2CCC(F)(F)C2)ccc1Cn1cc(C(=O)N[C@@H]2CCc3c2n[nH]c3C)cn1 [Example 37, 1-{[6-(3,3-Difluoropyrrolidin-1-yl)-2-methylpyridin-3-yl]methyl}-N-[(6R)-3-methyl-2H,4H,5H,6H-cyclopenta[c]pyrazol-6-yl]-1H-pyrazole-4-carboxamide]
1 nM	2840 nM	4 nM	> 10000 nM	Cc1nc(N2CCC(C(F)F)C2)ccc1Cn1cc(C(=O)N[C@@H]2CCc3c2n[nH]c3C)cn1 (stereo partly drawn) [Example 46, 1-({6-[3-(Difluoromethyl)pyrrolidin-1-yl]-2-methylpyridin-3-yl}methyl)-N-[(6R)-3-methyl-2H,4H,5H,6H-cyclopenta[c]pyrazol-6-yl]-1H-pyrazole-4-carboxamide]
1 nM	545 nM	2 nM		Cc1nc(N2CC(C)(C)C2)ccc1Cn1cc(C(=O)N[C@@H]2CCc3c2n[nH]c3C)cn1 [Example 67, 1-{[6-(3,3-Dimethylazetidin-1-yl)-2-methylpyridin-3-yl]methyl}-N-[(6R)-3-methyl-2H,4H,5H,6H-cyclopenta[c]pyrazol-6-yl]-1H-pyrazole-4-carboxamide]
